{"source": "patent US20260028354A1", "about": "“TETRAHYDRONAPHTHALENE DERIVATIVES AS ESTROGEN RECEPTOR DEGRADERS” (REGENT OF THE UNIVERSITY OF MICHIGAN, priority 2022, published 2026)", "test": "Western blot analysis for \"B\" compounds", "assay_type": "cell-based", "settings": "read-out: Traditional Western Degradation Potency (DC50)", "in_short": "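Compound-treated cells lysed in RIPA buffer with protease inhibitors; equal protein (BCA) run on 10% SDS-PAGE, transferred to PVDF and probed with target antibodies. Band intensities quantified by densitometry and normalized to GAPDH.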"}
{"compound": "O=C1CCC(N2C(=O)c3cc4c(cc3C2=O)CN(CC2CCN(C(=O)C3CN(c5ccc([C@@H]6c7ccc(O)cc7CC[C@@H]6c6ccccc6)cc5)C3)CC2)C4)C(=O)N1", "note": "(mixture of isomers) [Compound B35, 2-(2,6-dioxopiperidin-3-yl)-6-((1-(1-(4-((1R,2S)-6-hydroxy-2-phenyl-1,2,3,4-tctrahydronaphthalcn-1-yl)phcnyl)azctidinc-3-carbonyl)piperidin-4-yl)methyl)-6,7-dihydropyrrolo[3,4-f]isoindole-1,3(2H,5H)-dione]", "values": [{"measurement": "DC50", "result": "10 to 100", "unit": "nM"}]}
{"compound": "O=C1CCC(N2C(=O)c3cc4c(cc3C2=O)CN(C[C@H]2CC[C@@H](N3CC(Nc5ccc([C@@H]6c7ccc(O)cc7CC[C@@H]6c6ccccc6)cc5)C3)CC2)C4)C(=O)N1", "note": "(stereo partly drawn) [Compound B119, 2-(2,6-dioxopiperidin-3-yl)-6-(((1S,4s)-4-(3-((4-((1R,2S)-6-hydroxy-2-phenyl-1,2,3,4-tetrahydronaphthalen-1-yl)phenyl)amino)azetidin-1-yl)cyclohexyl)methyl)-6,7-dihydropyrrolo[3,4-f]isoindole-1,3(2H,5H)-dione]", "values": [{"measurement": "DC50", "result": "> 100", "unit": "nM"}]}
{"compound": "O=C1CCC(N2C(=O)c3cc4c(cc3C2=O)CN(CC(=O)N2CC3(C2)CN(c2ccc([C@@H]5c6ccc(O)cc6CC[C@@H]5c5ccc(F)cc5)cc2)C3)C4)C(=O)N1", "note": "(mixture of isomers) [Compound B188, 2-(2,6-dioxopipcridin-3-yl)-6-(2-(6-(4-((1R,2S)-2-(4-fluorophenyl)-6-hydroxy-1,2,3,4-tetrahydronaphthalen-1-yl)phenyl)-2,6-diazaspiro[3.3]heptan-2-yl)-2-oxoethyl)-6,7-dihydropyrrolo[3,4-f]isoindole-1,3(2H,5H)-dione]", "values": [{"measurement": "DC50", "result": "10 to 100", "unit": "nM"}]}
{"compound": "O=C1CCC(N2C(=O)c3cc4c(cc3C2=O)CN([C@H]2CC[C@@H](C(=O)N3CC(Nc5ccc([C@@H]6c7ccc(O)cc7CC[C@@H]6c6ccccc6)cc5)C3)CC2)C4)C(=O)N1", "note": "(stereo partly drawn) [Compound B125, 2-(2,6-dioxopiperidin-3-yl)-6-((1R,4s)-4-(3-((4-((1R,2S)-6-hydroxy-2-phenyl-1,2,3,4-tetrahydronaphthalen-1-yl)phenyl)amino)azetidine-1-carbonyl)cyclohexyl)-6,7-dihydropyrrolo[3,4-f]isoindole-1,3(2H,5H)-dione]", "values": [{"measurement": "DC50", "result": "< 10", "unit": "nM"}]}
{"compound": "O=C1CCC(N2C(=O)c3cc4c(cc3C2=O)CN(CC2(F)CN(C(=O)C3CCN(c5ccc([C@@H]6c7ccc(O)cc7CC[C@@H]6c6ccccc6)cc5)CC3)C2)C4)C(=O)N1", "note": "(stereo partly drawn) [Compound B268, 2-(2,6-dioxopiperidin-3-yl)-6-((3-fluoro-1-(1-(4-((1R,2S)-6-hydroxy-2-phenyl-1,2,3,4-tetrahydronaphthalen-1-yl)phenyl)piperidine-4-carbonyl)azetidin-3-yl)methyl)-6,7-dihydropyrrolo[3,4-f]isoindole-1,3(2H,5H)-dione]", "values": [{"measurement": "DC50", "result": "> 100", "unit": "nM"}]}
{"compound": "O=C1CCC(N2C(=O)c3cc4c(cc3C2=O)CN(CC(=O)N2CC3(CCN(c5ccc([C@@H]6c7ccc(O)cc7CC[C@@H]6c6ccccc6)cc5)CC3)C2)CCC4)C(=O)N1", "note": "(mixture of isomers) [Compound B261, 2-(2,6-dioxopiperidin-3-yl)-6-(2-(7-(4-((1R,2S)-6-hydroxy-2-phenyl-1,2,3,4-tetrahydronaphthalen-1-yl)phenyl)-2,7-diazaspiro[3.5]nonan-2-yl)-2-oxoethyl)-6,7,8,9-tetrahydroazepino[3,4-f]isoindole-1,3(2H,5H)-dione]", "values": [{"measurement": "DC50", "result": "> 100", "unit": "nM"}]}
{"compound": "O=C1CCC(N2C(=O)c3cc4c(cc3C2=O)CN(CC2CCC3(CC2)CN(C(=O)c2ccc([C@@H]5c6ccc(O)cc6CC[C@@H]5c5ccccc5)cc2)C3)C4)C(=O)N1", "note": "(stereo partly drawn) [Compound B288, 2-(2,6-dioxopiperidin-3-yl)-6-((2-(4-((1R,2S)-6-hydroxy-2-phenyl-1,2,3,4-tetrahydronaphthalen-1-yl)benzoyl)-2-azaspiro[3.5]nonan-7-yl)methyl)-6,7-dihydropyrrolo[3,4-f]isoindole-1,3(2H,5H)-dione]", "values": [{"measurement": "DC50", "result": "> 100", "unit": "nM"}]}
{"compound": "O=C1CCC(N2Cc3cc4c(cc3C2=O)CN(CC2CCN(c3ccc([C@@H]5c6ccc(O)cc6CC[C@@H]5c5ccccc5)cc3)CC2)C4)C(=O)N1", "note": "(mixture of isomers) [Compound B1, 3-(6-((1-(4-((1R,2S)-6-hydroxy-2-phenyl-1,2,3,4-tetrahydronaphthalen-1-yl)phenyl)piperidin-4-yl)methyl)-1-oxo-3,5,6,7-tetrahydropyrrolo[3,4-f]isoindol-2(1H)-yl)piperidine-2,6-dione]", "values": [{"measurement": "DC50", "result": "> 100", "unit": "nM"}]}
{"compound": "O=C1CCC(N2C(=O)c3cc4c(cc3C2=O)CN(CC(=O)N2CCC3(CC2)CCN(c2ccc([C@H]5c6ccc(O)cc6CC[C@H]5c5ccccc5)cc2)CC3)C4)C(=O)N1", "note": "(stereo partly drawn) [Compound B180, 2-(2,6-dioxopiperidin-3-yl)-6-(2-(9-(4-((1S,2R)-6-hydroxy-2-phenyl-1,2,3,4-tetrahydronaphthalen-1-yl)phenyl)-3,9-diazaspiro[5.5]undecan-3-yl)-2-oxoethyl)-6,7-dihydropyrrolo[3,4-f]isoindole-1,3(2H,5H)-dione]", "values": [{"measurement": "DC50", "result": "> 100", "unit": "nM"}]}
{"compound": "O=C1CCC(N2C(=O)c3cc4c(cc3C2=O)CN(CC2CCN(CC3CN(c5ccc([C@@H]6c7ccc(O)cc7CC[C@@H]6c6ccc(F)cc6)cc5)C3)CC2)C4)C(=O)N1", "note": "(stereo partly drawn) [Compound B70, 2-(2,6-dioxopiperidin-3-yl)-6-((1-((1-(4-((1R,2S)-2-(4-fluorophenyl)-6-hydroxy-1,2,3,4-tetrahydronaphthalen-1-yl)phenyl)azetidin-3-yl)methyl)piperidin-4-yl)methyl)-6,7-dihydropyrrolo[3,4-f]isoindole-1,3(2H,5H)-dione]", "values": [{"measurement": "DC50", "result": "> 100", "unit": "nM"}]}
{"compound": "O=C1CCC(N2C(=O)c3cc4c(cc3C2=O)CN(C2CN(CC3CCN(c5ccc([C@@H]6c7ccc(O)cc7CC[C@@H]6c6ccccc6)cc5)CC3)C2)C4)C(=O)N1", "note": "(stereo partly drawn) [Compound B65, 2-(2,6-dioxopiperidin-3-yl)-6-(1-((1-(4-((1R,2S)-6-hydroxy-2-phenyl-1,2,3,4-tetrahydronaphthalen-1-yl)phenyl)piperidin-4-yl)methyl)azetidin-3-yl)-6,7-dihydropyrrolo[3,4-f]isoindole-1,3(2H,5H)-dione]", "values": [{"measurement": "DC50", "result": "> 100", "unit": "nM"}]}
{"compound": "CN(C1CCC(C(=O)N2Cc3cc4c(cc3C2)C(=O)N(C2CCC(=O)NC2=O)C4)CC1)C1CCN(c2ccc([C@@H]3c4ccc(O)cc4CC[C@@H]3c3ccccc3)cc2)CC1", "note": "(stereo partly drawn) [Compound B201, 3-(6-(4-((1-(4-((1R,2S)-6-hydroxy-2-phenyl-1,2,3,4-tetrahydronaphthalen-1-yl)phenyl)piperidin-4-yl)(methyl)amino)cyclohexane-1-carbonyl)-1-oxo-3,5,6,7-tetrahydropyrrolo[3,4-f]isoindol-2(1H)-yl)piperidine-2,6-dione]", "values": [{"measurement": "DC50", "result": "10 to 100", "unit": "nM"}]}
{"compound": "O=C1CCC(N2C(=O)c3cc4c(cc3C2=O)CN(C2CCN(CC3CN(c5ccc([C@@H]6c7ccc(O)cc7CC[C@@H]6c6ccccc6)cc5)C3)CC2)C4)C(=O)N1", "note": "(stereo partly drawn) [Compound B61, 2-(2,6-dioxopiperidin-3-yl)-6-(1-((1-(4-((1R,2S)-6-hydroxy-2-phenyl-1,2,3,4-tetrahydronaphthalen-1-yl)phenyl)azetidin-3-yl)methyl)piperidin-4-yl)-6,7-dihydropyrrolo[3,4-f]isoindole-1,3(2H,5H)-dione]", "values": [{"measurement": "DC50", "result": "< 10", "unit": "nM"}]}
{"compound": "O=C1CCC(N2C(=O)c3cc4c(cc3C2=O)CCN(CC(=O)N2CC3(CCN(c5ccc([C@@H]6c7ccc(O)cc7CC[C@@H]6c6ccccc6)cc5)CC3)C2)CC4)C(=O)N1", "note": "(stereo partly drawn) [Compound B41, 2-(2,6-dioxopiperidin-3-yl)-7-(2-(7-(4-((1R,2S)-6-hydroxy-2-phenyl-1,2,3,4-tetrahydronaphthalen-1-yl)phenyl)-2,7-diazaspiro[3.5]nonan-2-yl)-2-oxoethyl)-6,7,8,9-tetrahydroazepino[4,5-f]isoindole-1,3(2H,5H)-dione]", "values": [{"measurement": "DC50", "result": "> 100", "unit": "nM"}]}
{"compound": "C[C@@H]1CC2(CCN(c3ccc([C@@H]4c5ccc(O)cc5CC[C@@H]4c4ccc(F)cc4)cc3)CC2)CN1CC(=O)N1Cc2cc3c(cc2C1)C(=O)N(C1CCC(=O)NC1=O)C3=O", "note": "(stereo partly drawn) [Compound B27, 2-(2,6-dioxopiperidin-3-yl)-6-(2-((R)-8-(4-((1R,2S)-2-(4-fluorophenyl)-6-hydroxy-1,2,3,4-tetrahydronaphthalen-1-yl)phenyl)-3-methyl-2,8-diazaspiro[4.5]decan-2-yl)acetyl)-6,7-dihydropyrrolo[3,4-f]isoindole-1,3(2H,5H)-dione]", "values": [{"measurement": "DC50", "result": "> 100", "unit": "nM"}]}
{"compound": "O=C1CCC(N2C(=O)c3cc4c(cc3C2=O)CC2(C4)CN(CC(=O)N3CC(Oc4ccc([C@@H]5c6ccc(O)cc6CC[C@@H]5c5ccccc5)cc4)C3)C2)C(=O)N1", "note": "(stereo partly drawn) [Compound B300, 2′-(2,6-dioxopiperidin-3-yl)-1-(2-(3-(4-((1R,2S)-6-hydroxy-2-phenyl-1,2,3,4-tetrahydronaphthalen-1-yl)phenoxy)azetidin-1-yl)-2-oxoethyl)-5′,7′-dihydro-1'H-spiro[azetidine-3,6′-cyclopenta[f]isoindole]-1′,3′(2′H)-dione]", "values": [{"measurement": "DC50", "result": "> 100", "unit": "nM"}]}
{"compound": "O=C1CCC(N2C(=O)c3cc4c(cc3C2=O)CN(CC(=O)N2CCC3(CC2)CN(c2ccc([C@@H]5c6ccc(O)cc6CC[C@@H]5c5ccc(F)cc5Cl)cc2)C3)C4)C(=O)N1", "note": "(mixture of isomers) [Compound B259, 6-(2-(2-(4-((1R,2S)-2-(2-chloro-4-fluorophenyl)-6-hydroxy-1,2,3,4-tetrahydronaphthalen-1-yl)phenyl)-2,7-diazaspiro[3.5]nonan-7-yl)-2-oxoethyl)-2-(2,6-dioxopiperidin-3-yl)-6,7-dihydropyrrolo[3,4-f]isoindole-1,3(2H,5H)-dione]", "values": [{"measurement": "DC50", "result": "10 to 100", "unit": "nM"}]}
{"compound": "O=C1CCC(N2Cc3cc4c(cc3C2=O)CN(C2CCN(CC3CCN(c5ccc([C@@H]6c7ccc(O)cc7CC[C@@H]6c6ccccc6)cc5)CC3)CC2)C4)C(=O)N1", "note": "(mixture of isomers) [Compound B3, 3-(6-(1-((1-(4-((1R,2S)-6-hydroxy-2-phenyl-1,2,3,4-tetrahydronaphthalen-1-yl)phenyl)piperidin-4-yl)methyl)piperidin-4-yl)-1-oxo-3,5,6,7-tetrahydropyrrolo[3,4-f]isoindol-2(1H)-yl)piperidine-2,6-dione]", "values": [{"measurement": "DC50", "result": "< 10", "unit": "nM"}]}
